Results as given in publication PMC13477270 (Nature structural & molecular biology, 2025).

Legend:
[1] = tested on: iTRIM37 KO RPE1 cells (PLK4 inhibition); type: cell-based; settings: centrinone 100 or 150 nM, before TRIM37 knockout with doxycycline
iTRIM37 KO RPE1 cells = type: cell-based; settings: centrinone pretreatment, then TRIM37 knockout with doxycycline

**Q.** How did the centrosome depletion [1] turn out when `COc1c(Nc2cc(C)[nH]n2)nc(Sc2ccc(S(=O)(=O)Cc3cccc([N+](=O)[O-])c3F)cc2F)nc1N1CCOCC1` [centrinone] was run?
**A.** depleted centrosomes

**Q.** And the “frequency of centrobin condensate formation after centrosome loss” value (iTRIM37 KO RPE1 cells)?
**A.** at a frequency similar to that in constitutive TRIM37Δ cells with centrosomes
